# Patent US10869875B2, “Oxysterols and Hedgehog signaling” (MAX BIOPHARMA, INC., priority 2015, dated 2020)
# Assays:
# [1] = system: Hedgehog target gene Gli1; test: Expression of Hedgehog target gene Gli1 in NIH3T3 cells (quantitative RT-PCR); assay type: cell-based; conditions: for Gli1 gene expression relative to CM only / Hedgehog signaling (Gli1 gene expression) compared to the control / gene expression of the Hedgehog target gene Gli1 / Hedgehog signaling (Gli1 gene expression): NIH3T3 cells; for Hedgehog signaling (Gli1 gene expression) compared to the control: without CM; for gene expression of the Hedgehog target gene Gli1: in CM, 5 μM and 10 μM; for gene expression of the Hedgehog target gene Gli1 / Hedgehog signaling (Gli1 gene expression): FIG. 7; for Hedgehog signaling (Gli1 gene expression): in the absence of CM
# Procedure: The compounds described herein were tested on cell cultures to assess their effects on Hedgehog target genes PTCH and Gli1. Conditioned medium (CM) was collected from CAPAN-1 human pancreatic tumor cells grown to confluence in DMEM containing 10%0/fetal bovine serium (FBS) and contains Hh proteins that activate the Hh pathway in cells receiving the CM. After 7 days of incubation of confluent cells with the described medium, CM was collected, spun for 5 minutes at 1800 rpm to remove dead cells and debris, and then frozen at −80° C. For treating cells, CM was thawed and diluted 1:2 to 1:6 with DMEM containing 5% FBS. NIH3T3 cells, HepG2 and SUFU−/−MEF cells were cultured in 12-well plates with DMEM containing 10% FBS. The cells were then treated with DMEM containing 5% FBS or CM in the presence or absence of the compounds prepared in DMSO when they reach confluence. Quantitative RT-PCR was then performed according to the following approach. After 72 to 96 hours of the treatments, the cells were lysed and subjected to RNA extraction with RNease Plus Min kit (Qiagen). A portion of RNA from each well was subjected to Reverse Transcription (RT) using iScript Reverse Transcription Supermix (BioRad). QPCR was performed to test the expression of Hh target genes PTCH and Gli1 using IQ SYBR Green Supermix (BioRad).
# [2] = system: connective tissue growth factor (CTGF); test: TGFβ1 induced expression of CTGF in NIH3T3 cells (Q-RT-PCR); assay type: cell-based; conditions: 10 uM, recombinant human TGFβ1 at 20 ng/ml, 48 hours, FIG. 8
# Procedure: NIH3T3 cells were treated with recombinant human TGFβ1 at 20 ng/ml in the absence or presence of compound 21 at 10 uM. After 48 hours, RNA was extracted and analyzed by Q-RT-PCR for the expression of connective tissue growth factor (CTGF), a tumorigenic gene.
# [3] = 10 μM, in the presence of CM, FIG. 6, result in words
SMILES,"Hedgehog signaling (Gli1 gene expression) compared to the control ([1]; 10 μM, FIG. 6)",gene expression of the Hedgehog target gene Gli1 [1],Hedgehog signaling (Gli1 gene expression) [1],"Gli1 gene expression relative to CM only [1, 3]",further results
"C[C@]12CC[C@H]3[C@@H](CC=C4C[C@@H](O)CC[C@@]43C)[C@@H]1CC[C@@H]2[C@@](C)(O)CCc1ccc(F)cc1 [Oxy45, reference compound]",stimulated Hedgehog signaling,,,,"Gli1 gene expression relative to CM only ([1]; 5 μM, in the presence of conditioned medium (CM), FIG. 6): more than 2 fold; Gli1 gene expression relative to CM only ([1]; 10 μM, in the presence of conditioned medium (CM), FIG. 6): more than 2 fold"
"C[C@]12CC[C@H]3[C@@H](CC=C4C[C@@H](O)CC[C@@]43C)[C@@H]1CC[C@@H]2[C@@](C)(O)CCc1cccnc1 [Oxy43, reference compound]",,greatly increased,stimulated Hedgehog signaling,,
"C[C@]12CC[C@H]3[C@@H](CC=C4C[C@@H](O)CC[C@@]43C)[C@@H]1CC[C@@H]2[C@](C)(O)CCc1cccnc1 [compound 21, (3S,8S,9S,10R,13S,14S,17S)-17-((R)-2-hydroxy-4-(pyridin-3-yl)butan-2-yl)-10,13-dimethyl-2,3,4,7,8,9,10,11,12,13,14,15,16,17-tetradecahydro-1H-cyclopenta[a]phenanthren-3-ol]",,decreased,did not,,TGFβ1 induced expression of CTGF [2]: inhibited
"C[C@]12CC[C@H](O)C[C@@H]1CC[C@@H]1[C@@H]2CC[C@@]2(C)[C@H]1CC[C@@H]2[C@](C)(O)CCc1ccc(F)cc1 [compound 6, (3S,5S,8R,9S,10S,13S,14S,17S)-17-((R)-4-(4-fluorophenyl)-2-hydroxybutan-2-yl)-10,13-dimethylhexadecahydro-1H-cyclopenta[a]phenanthren-3-ol]",did not show this effect,,,greatly decreased,"Gli1 gene expression relative to CM only ([1]; 5 μM, in the presence of CM, FIG. 6, result in words): greatly decreased; inhibition of Gli1 expression vs. compound 4 ([1]; comparison with compound 4 (C5-C6 double bond, C20 R-stereochemistry), FIG. 1): increased; inhibition of Gli1 expression vs. compound 18 ([1]; comparison with compound 18 (C20 S-stereochemistry, C5-C6 single bond), FIGS. 1 and 3): increased"
"C[C@]12CC[C@H]3[C@@H](CC=C4C[C@@H](O)CC[C@@]43C)[C@@H]1CC[C@@H]2[C@](C)(O)CCc1ccc(F)cc1 [compound 4, (3S,8S,9S,10R,13S,14S,17S)-17-((R)-4-(4-fluorophenyl)-2-hydroxybutan-2-yl)-10,13-dimethyl-2,3,4,7,89,10,11,12,13,14,15,16,17-tetradecahydro-1H-cyclopenta[a]phenanthren-3-ol]",did not show this effect,,,greatly decreased,
